Consider 13 compounds from PubChem BioAssay AID504561 (Southern Research Specialized Biocontainment Screening …, 2011).

In general, IC50 refers to the concentration at which inhibition is half-maximal.

Each structure is given as a SMILES string.

This experiment deals with HeLa-CD4-LTR-beta-gal/HL2/3 cell fusion, beta-gal luminescence. Briefly: HIV-1 entry blockers, X4 Env-mediated fusion – HL2/3 with HeLa-CD4 reporter cells, 2% serum, set 2, dose response (AID 504561).
Take `Cc1c2c(=O)n(-c3nc4ccccc4s3)nc-2cc(O)n1CCC(C)C`: the IC50 is 5.2 µM.

In the case of `COc1ccc(Cn2c(O)cc3nn(-c4nc5ccccc5s4)c(=O)c-3c2C)cc1`, the half-maximal inhibitory concentration (IC50) was 7.91 µM.

Turning to `Cc1c2c(=O)n(-c3nc4ccccc4s3)nc-2cc(O)n1Cc1ccc(F)cc1`, the IC50 was 3.9 µM.

Regarding `Cc1c2c(=O)n(-c3nc4ccccc4s3)nc-2cc(O)n1CCc1cccs1`, the IC50 was 7.14 µM.

As for `COc1ccccc1Cn1c(O)cc2nn(-c3nc4ccccc4s3)c(=O)c-2c1C`, the half-maximal inhibitory concentration (IC50) was 4.55 µM.

With `Cc1c2c(=O)n(-c3nc4ccccc4s3)nc-2cc(O)n1Cc1ccccc1Cl`, the IC50 is 5.42 µM.

Regarding `Cc1c2c(=O)n(-c3nc4ccccc4s3)nc-2cc(O)n1Cc1cccnc1`, the IC50 was 5.71 µM.

Turning to `Cc1c2c(=O)n(-c3nc4ccccc4s3)nc-2cc(O)n1C1CC1`, the IC50 is 3.56 µM.

For the compound `COc1ccc(CCn2c(O)cc3nn(-c4nc5ccccc5s4)c(=O)c-3c2C)cc1`, the half-maximal inhibitory concentration (IC50) is 6.94 µM.

Turning to `Cc1c2c(=O)n(-c3nc4ccccc4s3)nc-2cc(O)n1Cc1ccccc1`, the 50% inhibitory concentration (IC50) is 27.4 µM.

With `Cc1c2c(=O)n(-c3nc4ccccc4s3)nc-2cc(O)n1CCc1ccc(O)cc1`, the IC50 is 9.72 µM.

With `Cc1c2c(=O)n(-c3nc4ccccc4s3)nc-2cc(O)n1Cc1cccs1`, the half-maximal inhibitory concentration (IC50) is 4.77 µM.

On to `Cc1c2c(=O)n(-c3nc4ccccc4s3)nc-2cc(O)n1Cc1ccncc1`, for which the IC50 is 9.59 µM.
